{"source": "patent US10538517B2", "about": "“Quinolone derivatives as FGFR inhibitors” (Principia Biopharma, Inc., priority 2015, dated 2020)", "key": {"[1]": {"system": "SNU-16 human gastric cancer cell line xenograft", "assay": "Human gastric tumor (HGS) xenograft model", "format": "in vivo, mice", "settings": "day 42 after inoculation, 20/kg of compound (vehicle group 645)", "protocol": "Human Gastric Tumor Model:\nSNU-16 human gastric cancer cell line can be used to generate a xenograft model to determine the effects of a FGFR inhibitor of the present disclosure (test compound) as a single agent treatment to target FGFR-dependent tumor growth. SNU-16 cells are grown in tissue culture as described in Example 2 above. For tumor inoculation, approximately 1×10^7 cells are mixed with Matrigel (1:1) and are implanted into the rear flank of immuno compromised Balb/c nu/nu mice. Tumor-bearing mice are monitored twice weekly in two dimensions using a caliper and the volume expressed in mm^3 using the formula: V=0.5 a×b^2 where a and b are the long and short diameters of the tumor respectively. Once tumor volume reaches a mean average of 175 mm^3 mice are randomized into 3 groups (n=8-10 per group) receiving either vehicle control (0.5% methyl cellulose w/w) or the test compound by oral gavage. Dosing continues for 5-21 days with tumor volumes measured daily or every other day. It is expected that tumor growth will be inhibited in animals treated with the test compound. […] Inhibition of FGFR pathway can be assessed by detection of FGFR auto phosphorylation activity. […] Tumor samples are collected at 8 h or 12 h post the last dosing and FGFR auto phosphorylation activity is determined. […]"}, "[2]": {"system": "SNU-16 cells", "assay": "Inhibition of FGFR2-dependent cell growth (Cell-titer Glo)", "format": "cell-based", "settings": "Homo sapiens, SNU-16, 72 h, 72 hrs incubation, cell viability, read-out: SNU16 IC50 values", "protocol": "The cell-based effects of FGFR inhibitors were determined by measuring inhibition of FGFR-dependent cell line growth. The cell lines SNU-16 was used for these assays. […] Percent inhibition of cell growth was calculated as a percentage of untreated cell viability. The percent inhibition was plotted as a function of log compound concentration. The IC50 was then calculated for each compound using Prism software from GraphPad."}}, "data": [{"smiles": "C=CC(=O)N1CCN(CCCn2c(=O)c(-c3c(Cl)c(OC)cc(OC)c3Cl)cc3cnc(NC)nc32)CC1", "note": "[8-(3-(4-acryloylpiperazin-1-yl)propyl)-6-(2,6-dichloro-3,5-dimethoxyphenyl)-2-(methylamino)pyrido[2,3-d]pyrimidin-7(8H)-one]", "values": [{"measurement": "tumor size", "setting": "[1]", "result": 55, "unit": "mm3"}]}, {"smiles": "CNc1ncc2cc(-c3cc(OC)cc(OC)c3Cl)c(=O)n(CCN3CCN(C(=O)C(C#N)=CC(C)(C)C)CC3)c2n1", "note": "[Cpd 2 (table 1), 2-(4-(2-(6-(2-chloro-3,5-dimethoxyphenyl)-2-(methylamino)-7-oxopyrido[2,3-d]pyrimidin-8(7H)-yl)ethyl)piperazine-1-carbonyl)-4,4-dimethylpent-2-enenitrile]", "values": [{"measurement": "IC50", "setting": "[2]", "result": 50.8, "unit": "nM"}]}, {"smiles": "CCOC(C)(C)C=C(C#N)C(=O)Nc1ccc(CCn2c(=O)c(-c3cc(OC)cc(OC)c3Cl)cc3cnc(NC)nc32)cc1", "note": "[Cpd 27 (table 2), N-(4-(2-(6-(2-chloro-3,5-dimethoxyphenyl)-2-(methylamino)-7-oxopyrido[2,3-d]pyrimidin-8(7H)-yl)ethyl)phenyl)-2-cyano-4-ethoxy-4-methylpent-2-enamide]", "values": [{"measurement": "IC50", "setting": "[2]", "result": 4.2, "unit": "nM"}]}, {"smiles": "CNc1ncc2cc(-c3cc(OC)cc(OC)c3Cl)c(=O)n(CCc3ccnc(NC(=O)C(C#N)=CC(C)(C)N)c3)c2n1", "note": "[Cpd 20 (table 2), 4-amino-N-(4-(2-(6-(2-chloro-3,5-dimethoxyphenyl)-2-(methylamino)-7-oxopyrido[2,3-d]pyrimidin-8(7H)-yl)ethyl)pyridin-2-yl)-2-cyano-4-methylpent-2-enamide]", "values": [{"measurement": "IC50", "setting": "[2]", "result": 91.4, "unit": "nM"}]}]}
